Source: patent publication US20220257596A1, “METHODS FOR TREATING MEIBOMIAN GLAND DYSFUNCTION WITH LIVER X RECEPTOR AGONISTS” (Novartis AG, priority 2019, published 2022)

Columns and labels:
[1] = tested on: SCD1 protein production in SZ95-SCD1-HiBit cells; experiment: Measurement of SCD1 expression in SZ95-SCD1-HiBit cells (HiBiT assay); format: cell-based; settings: Homo sapiens
Experimental: SZ95-SCD1-HiBit cells were seeded in 384-well cell culture white plates at a density of 3000 cells/30 ul. Water is added to edge wells to avoid evaporation. Cells were incubated in a humidified incubator with 5% CO2 at 37° C. overnight. Tested compounds were diluted at a ratio of 1:3 using Agilent BRAVO Automated Liquid Handling Platform and added to cells at final concentrations starting from 18 μM. Compound H was used as a reference compound in each plate. Cells in the assay plate were incubated in a humidified incubator with 5% CO2 at 37° C. for 48h.
The assay plates were removed from the incubator and allowed to equilibrate to room temperature. Nano-Glo® HiBiT Detection Reagent (Promega; a mixture of Nano-Glo HiBiT Detection Buffer, Nano-Glo HiBiT Detection Substrate, and LgBiT protein) was added into assay plates, at a volume equal to cell culture medium in each well. Plates were placed on an orbital shaker at a speed of 300-600 rpm for 10 min at room temperature, and read on an EnVision Plate Reader using luminescence detection with a 1 second read time.
The assay measures the increase in SCD1 protein production in vitro. Amax refers to the percent […] of the tested compound compared to the reference compound.

[2] = Eyelid pharmacokinetics: compound concentration in rabbit meibomian gland; format: in vivo
Experimental: A formulation of 1% Compound G as a suspension in a suitable vehicle was administered to rabbits as follows. Animals were sedated and the eyelashes and hair on both eyes on both lids trimmed as short as possible. Thirty microliters of the 1% Compound G was drawn up into a pipette and carefully pipetted around the entire eyelid of the animal a few millimeters back from the edge of the lid so as to prevent the material from leaking onto the eye itself. Following application, a cotton swab or eye spear was used to gently try and massage the material into the skin. At the appropriate time points, the animals were euthanized and meibomian glands removed and the concentration of the compound in meibomian glands was measured. The experiment was conducted in triplicate and the results below illustrate mean concentration in nM.

[3] = tested on: SZ95 (immortalized human sebaceous gland cells) cells; experiment: Sentinel lipid assay (desaturation index in SZ95 sebocytes); format: cell-based
Experimental: SZ95 (immortalized human sebaceous gland cells) cells were seeded in Greiner bio-one 96-well polypropylene plates that were pre-treated with 50 μg/ml Human Plasma Fibronectin (Thermo Fisher Scientific) at a density of 10^4 cells/135 μl. Cells were incubated in a humidified incubator with 5% CO2 at 37° C. overnight. Test compounds were diluted at a ratio of 1:3 and added to cells at final concentrations starting from 10 μM. Compound H was used as a positive control reference compound in each plate. Cells in the assay plate were incubated in a humidified incubator with 5% CO2 at 37° C. for 72h.
Culture medium was removed from the cells and cells in culture plates were washed with ice cold phosphate buffered saline three times. Plates were heat sealed and stored in a −80° C. freezer prior to Sentinel lipid assay.
Sentinel lipid assay: The sentinel lipid assay was used quantify the change in the global desaturation index in SZ95 sebocytes upon administration of LXR agonist compounds. The assay measures a smaller subset of lipid analytes in […] (termed “sentinel lipids”) which would model the global changes the population of both saturated and desaturated lipids in the cells. In order to define this smaller subset of lipids, a complete lipid profile was recorded on dose response curves (eight levels from 4 nM to 10 uM) of Compounds A-N. An elastic net regression model was applied separately to both the saturated and desaturated lipids to determine the minimum combination of coefficients and analytes which could be used to adequately model the total population of lipids. The elastic net model was able to reduce the behavior of 425 lipids to 11 lipids and the correlation between the desaturation indices observed using the complete set of lipids with from the 11 sentinel lipids was 0.96.
A medium throughput assay was created using this reduced set of sentinel lipids. A single batch is defined as triplicate examples of three unique plates (i.e., a single batch of cells is used to create nine plates for LC-MSMS analysis). Lipids were extracted from the cells using a 1:1 mixture of methylene chloride/methanol containing 10 nM of deuterated standards of triglycerides, which are used as internal standards for quantitating the lipid abundance. The lipids were separated prior to mass spectrometric analysis using a five minute HPLC gradient. The abundance of the sentinel lipids and the internal standards are measured using multiple reaction monitor mode (MRM) on a triple quadrupole mass spectrometer. The data was transformed from total ion current to nmoles/10^6 cells, which are multiplied by the coefficients from the elastic net model to determine the effective desaturated and saturated content, and therein the desaturation index of the dosed cells. In order to compare compounds from multiple batches with one another, the measure raw desaturation index was normalized by dividing it by the desaturation index of the DMSO dosed cells, and all data was assessed as the fraction by which the compound increases the desaturation index above 1. The Amax value refers to the percent […] of the tested compound compared to the reference compound.

## CCOC(=O)Cn1nc(C(F)(F)F)cc1-c1ccc(-c2cccc(S(C)(=O)=O)c2)cc1 [Compound G, ethyl 2-(5-(3′-(methylsulfonyl)-[1,1′-biphenyl]-4-yl)-3-(trifluoromethyl)-1H-pyrazol-1-yl)acetate]
[1]; SZ95-SCD1-HiBit cells, 48h incubation, top concentration 18 μM
  EC50: 111 nM
[1]; percent compared to the reference compound (Compound H), 48h, read-out: HiBit Amax
  Emax: 70.7%
[2]; 1% suspension on eyelid, in words
  Uptake into the meibomian gland: sustained for at least six hours
[2]; meibomian gland, topical, 0.5 h, 30 microliters of 1% suspension applied to eyelid, triplicate
  concentration at 0.5 h: 2630 nM
[2]; meibomian gland, topical, 3 h, 30 microliters of 1% suspension applied to eyelid, triplicate
  concentration at 3 h: 3780 nM
[2]; meibomian gland, topical, 6 h, 30 microliters of 1% suspension applied to eyelid, triplicate
  concentration at 6 h: 1050 nM
[3]; SZ95 cells, 72h incubation, top concentration 10 μM, desaturation index, read-out: SLA EC50
  EC50: 243 nM
[3]; percent compared to the reference compound (Compound H), 72h, read-out: SLA Amax
  Emax: 98.8%
